Experimental data published in patent publication US9133204B2, “5-membered heterocyclic amides and related compounds” (H. Lundbeck A/S, priority 2007, dated 2015).

These compounds were tested against T1, P2X7 receptor (Homo sapiens, UniProt Q99572) (assay: High throughput P2X7 calcium mobilization assay (Example 4A)). Details: SH-SY5Y cells; 50% decrease in fluorescence response of cells exposed to 80 μM BzATP; Table I.
T1 construct: host or cells: SH-SY5Y
T1 sequence (Q99572 1-595): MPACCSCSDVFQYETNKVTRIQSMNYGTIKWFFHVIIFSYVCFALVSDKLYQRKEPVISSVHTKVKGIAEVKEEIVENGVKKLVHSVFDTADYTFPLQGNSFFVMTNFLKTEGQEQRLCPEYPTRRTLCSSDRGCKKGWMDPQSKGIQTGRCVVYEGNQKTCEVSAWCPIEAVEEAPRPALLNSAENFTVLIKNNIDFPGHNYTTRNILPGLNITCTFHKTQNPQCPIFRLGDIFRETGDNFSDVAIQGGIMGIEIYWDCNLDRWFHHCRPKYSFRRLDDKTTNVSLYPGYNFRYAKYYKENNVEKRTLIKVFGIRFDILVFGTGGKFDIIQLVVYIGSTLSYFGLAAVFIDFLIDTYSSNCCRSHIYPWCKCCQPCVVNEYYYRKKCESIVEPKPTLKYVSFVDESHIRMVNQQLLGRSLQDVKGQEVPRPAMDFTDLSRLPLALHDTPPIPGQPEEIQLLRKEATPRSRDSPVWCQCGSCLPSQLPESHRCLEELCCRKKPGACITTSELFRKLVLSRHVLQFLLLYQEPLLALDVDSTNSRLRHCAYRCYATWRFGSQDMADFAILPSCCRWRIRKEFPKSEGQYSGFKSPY
Format: cell-based
Method: A. High Throughput Assay of P2X7 Receptors
SH-SY5Y cells, ATCC Number CRL-2266, (American Type Culture Collection, Manassas, Va.) are cultured under DMEM/High medium supplemented with 10% FBS, and 10 mM HEPES (Invitrogen Corp., Carlsbad, Calif.) in 5% CO2 and at 37° C. One day prior to the experiment, cells are plated at a density of 100,000 cells/well in a 96 well black/clear TC plate (Corning® Costar®, Sigma-Aldrich Co., St. Louis, Mo.). At the beginning of the experiment, the culture medium is removed and cells are incubated with 50 μL of 2.3 μM Fluo-4 AM dye (Invitrogen Corp.) in the assay solution (5 mM KCl, 9.6 mM NaH2PO4.H2O, 25 mM HEPES, 280 mM sucrose, 5 mM glucose, and 0.5 mM CaCl2; pH is adjusted to 7.4 with NaOH) for an hour at 37° C. After one hour dye incubation, wells are rinsed once with 50 μL assay solution, and are then incubated for an hour at room temperature with 100 μL assay solution containing the test compound. The final concentration of test compound generally ranges from 1 to 2500 nM; for positive control cells, no test compound is added. After the one hour incubation, plates are transferred to a FLIPR^TETRA instrument (Molecular Devices, Sunnyvale, Calif.) for calcium mobilization analysis.
For determination of antagonist activity, 50 μL, of P2X7 agonist (2′(3)-O-(4-benzoyl-benzoyl)adenosine 5′-triphosephate (BzATP; Sigma-Aldrich) in the assay solution is transferred using the FLIPR into the plate, such that the final agonist concentration is 80 μM (about EC50). In negative control cells, 50 μL of assay solution without agonist is added at this stage. The peak fluorescence signal over a 2 minute period is then measured.
First, the average maximum relative fluorescent unit (RFU) response from the negative control wells (no agonist) is subtracted from the maximum response detected for each of the other experimental wells. Second, average maximum RFU response is calculated for the positive control wells (agonist wells).

IC50, ≤ 2000 nM:
CCCc1ccc(C(=O)NCC23CC4CC(CC(C4)C2)C3)s1 [Compound 78, N-(1-adamantylmethyl)-5-propylthiophene-2-carboxamide]
Cn1nc(C(F)(F)F)cc1-c1ccc(C(=O)NCC23CC4CC(CC(C4)C2)C3)s1 [Compound 80, N-(1-adamantylmethyl)-5-[1-methyl-3-(trifluoromethyl)-1H-pyrazol-5-yl]thiophene-2-carboxamide]
Cn1nc(C(F)(F)F)cc1-c1ccc(C(=O)NCCC23CC4CC(CC(C4)C2)C3)s1 [Compound 85, N-[2-(1-adamantyl)ethyl]-5-[1-methyl-3-(trifluoromethyl)-1H-pyrazol-5-yl]thiophene-2-carboxamide]
Cc1csc(C(=O)NCC23CC4CC(CC(C4)C2)C3)c1Cl [Compound 87, N-(adamantan-1-ylmethyl)-3-chloro-4-methylthiophene-2-carboxamide]
Cc1cnc(-n2cc(C(=O)NCC34CC5CC(CC(C5)C3)C4)c(C)n2)nc1Br [Compound 91, N-(adamantan-1-ylmethyl)-1-(4-bromo-5-methylpyrimidin-2-yl)-3-methyl-1H-pyrazole-4-carboxamide]
CNc1nc(-n2cc(C(=O)NCC34CC5CC(CC(C5)C3)C4)c(C)n2)ncc1C [Compound 92, N-(adamantan-1-ylmethyl)-3-methyl-1-[5-methyl-4-(methylamino)pyrimidin-2-yl]-1H-pyrazole-4-carboxamide]
Cc1cnc(-n2cc(C(=O)NCC34CC5CC(CC(C5)C3)C4)c(C)n2)nc1-c1ccccc1 [Compound 93, N-(adamantan-1-ylmethyl)-3-methyl-1-(5-methyl-4-phenylpyrimidin-2-yl)-1H-pyrazole-4-carboxamide]
Cc1cnc(-n2cc(C(=O)NCC34CC5CC(CC(C5)C3)C4)c(C)n2)nc1 [Compound 94, N-(adamantan-1-ylmethyl)-3-methyl-1-(5-methylpyrimidin-2-yl)-1H-pyrazole-4-carboxamide]
Cc1cnc(-n2cc(C(=O)NCC34CC5CC(CC(C5)C3)C4)c(C)n2)nc1-c1cccnc1 [Compound 95, N-(adamantan-1-ylmethyl)-3-methyl-1-(5-methyl-4-pyridin-3-ylpyrimidin-2-yl)-1H-pyrazole-4-carboxamide]
Cc1cnc(-n2cc(C(=O)NCC34CC5CC(CC(C5)C3)C4)c(C)n2)nc1C(N)=O [Compound 96, 2-{4-[(adamantan-1-ylmethyl)carbamoyl]-3-methyl-1H-pyrazol-1-yl}-5-methylpyrimidine-4-carboxamide]
Cc1ccc(-n2cc(C(=O)NCC34CC5CC(CC(C5)C3)C4)c(C)n2)nc1 [Compound 97, N-(adamantan-1-ylmethyl)-3-methyl-1-(5-methylpyridin-2-yl)-1H-pyrazole-4-carboxamide]
Cc1nn(-c2ccccn2)cc1C(=O)NCC12CC3CC(CC(C3)C1)C2 [Compound 98]
Cc1nn(-c2nccc(N)n2)cc1C(=O)NCC12CC3CC(CC(C3)C1)C2 [Compound 99, N-(adamantan-1-ylmethyl)-1-(4-aminopyrimidin-2-yl)-3-methyl-1H-pyrazole-4-carboxamide]
Cc1cnc(-n2cc(C(=O)NCC34CC5CC(CC(C5)C3)C4)c(C(C)C)n2)nc1N [Compound 100, N-(adamantan-1-ylmethyl)-1-(4-amino-5-methylpyrimidin-2-yl)-3-isopropyl-1H-pyrazole-4-carboxamide]
Cc1nn(-c2ccncc2)cc1C(=O)NCC12CC3CC(CC(C3)C1)C2 [Compound 101, N-(adamantan-1-ylmethyl)-3-methyl-1-pyridin-4-yl-1H-pyrazole-4-carboxamide]
CCc1cnc(-n2cc(C(=O)NCC34CC5CC(CC(C5)C3)C4)c(C)n2)nc1 [Compound 102, N-(adamantan-1-ylmethyl)-1-(5-ethylpyrimidin-2-yl)-3-methyl-1H-pyrazole-4-carboxamide]
C=Cc1nc(-n2cc(C(=O)NCC34CC5CC(CC(C5)C3)C4)c(C)n2)ncc1C [Compound 103, N-(adamantan-1-ylmethyl)-3-methyl-1-(5-methyl-4-vinylpyrimidin-2-yl)-1H-pyrazole-4-carboxamide]
Cc1cnc(-n2cc(C(=O)NCC34CC5CC(CC(C5)C3)C4)c(C)n2)nc1C(=O)N1CCCC1 [Compound 104, N-(adamantan-1 ylmethyl)-3-methyl-1-[5-methyl-4-(pyrrolidin-1-ylcarbonyl)pyrimidin-2-yl]-1H-pyrazole-4-carboxamide]
Cc1cnc(-n2cc(C(=O)NCC34CC5CC(CC(C5)C3)C4)c(C)n2)nc1C(=O)N1CCC[C@@H](N)C1 [Compound 105, N-(adamantan-1-ylmethyl)-1-(4-{[(3R)-3-aminopiperidin-1-yl]carbonyl}-5-methylpyrimidin-2-yl)-3-methyl-1H-pyrazole-4-carboxamide]
CCc1nc(-n2cc(C(=O)NCC34CC5CC(CC(C5)C3)C4)c(C)n2)ncc1C [Compound 106, N-(adamantan-1-ylmethyl)-1-(4-ethyl-5-methylpyrimidin-2-yl)-3-methyl-1H-pyrazole-4-carboxamide]
CCNC(=O)c1nc(-n2cc(C(=O)NCC34CC5CC(CC(C5)C3)C4)c(C)n2)ncc1C [Compound 107, 2-{4-[(adamantan-1-ylmethyl)carbamoyl]-3-methyl-1H-pyrazol-1-yl]-N-ethyl-5-methylpyrimidine-4-carboxamide]
CCCNC(=O)c1nc(-n2cc(C(=O)NCC34CC5CC(CC(C5)C3)C4)c(C)n2)ncc1C [Compound 108, 2-{4-[(adamantan-1-ylmethyl)carbamoyl]-3-methyl-1H-pyrazol-1-yl}-5-methyl-N-propylpyrimidine-4-carboxamide]
Cc1cnc(-n2cc(C(=O)NCC(CC(C)C)c3ccc(Cl)cc3)c(C)n2)nc1N (centres unmarked) [Compound 109, 1-(4-amino-5-methylpyrimidin-2-yl)-N-[2-(4-chlorophenyl)-4-methylpentyl]-3-methyl-1H-pyrazole-4-carboxamide]
Cc1nn(-c2ncc(F)c(N)n2)cc1C(=O)NCC12CC3CC(CC(C3)C1)C2 [Compound 110, N-(adamantan-1-ylmethyl)-1-(4-amino-5-fluoropyrimidin-2-yl)-3-methyl-1H-pyrazole-4-carboxamide]
Cc1nn(-c2nccc(C(F)(F)F)n2)cc1C(=O)NCC12CC3CC(CC(C3)C1)C2 [Compound 111, N-(adamantan-1-ylmethyl)-3-methyl-1-[4-(trifluoromethyl)pyrimidin-2-yl]-1H-pyrazole-4-carboxamide]
Cc1nn(-c2ncc(F)cn2)cc1C(=O)NCC12CC3CC(CC(C3)C1)C2 [Compound 112, N-(adamantan-1-ylmethyl)-1-(5-fluoropyrimidin-2-yl)-3-methyl-1H-pyrazole-4-carboxamide]
Cc1nn(-c2ncc(F)c(N)n2)cc1C(=O)NCC(CC(C)C)c1ccc(Cl)cc1 (centres unmarked) [Compound 113, 1-(4-amino-5-fluoropyrimidin-2-yl)-N-[2-(4-chlorophenyl)-4-methylpentyl]-3-methyl-1H-pyrazole-4-carboxamide]
Cc1nn(-c2ncc(F)cn2)cc1C(=O)NCC(CC(C)C)c1ccc(Cl)cc1 (centres unmarked) [Compound 114, N-[2-(4-chlorophenyl)-4-methylpentyl]-1-(5-fluoropyrimidin-2-yl)-3-methyl-1H-pyrazole-4-carboxamide]
Cc1cnc(-n2cc(C(=O)NCC(CC(C)C)c3ccc(C(F)(F)F)cc3)c(C)n2)nc1N (centres unmarked) [Compound 115, 1-(4-amino-5-methylpyrimidin-2-yl)-3-methyl-N-{4-methyl-2-[4-(trifluoromethyl)phenyl]pentyl}-1H-pyrazole-4-carboxamide]
